Laboratory results published in ChEMBL document CHEMBL1201862, “PubChem BioAssay data set” (2004).
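1) Cells in 96-well plates. 2) Compound, 48 h, 5 concentrations. 3) Linear interpolation between surrounding doses. 4) Unreached endpoint = highest concentration. GI50: concentration for 50% inhibition of growth.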 Activity calls are given as the source filed them. Cut-off read from the data, not from the text of the source: active = GI50 up to about 1.1 µM and inactive = higher.

How the values were obtained:
Test in all cases: inhibition of tumour cell growth, NCI panel, 48 h
Malme-3M = system: Malme-3M
TK-10 = system: TK-10
UACC-62 = system: UACC-62
SF-539 = system: SF-539
OVCAR-8 = system: OVCAR-8
HOP-92 = system: HOP-92
RPMI-8226 = system: RPMI-8226
SK-MEL-2 = system: SK-MEL-2
HT-29 = system: HT-29
CCRF-CEM = system: CCRF-CEM
IGROV-1 = system: IGROV-1
OVCAR-4 = system: OVCAR-4
SF-295 = system: SF-295
CAKI-1 = system: CAKI-1
HCC 2998 = system: HCC 2998
OVCAR-5 = system: OVCAR-5

Measured: GI50

CON(C)C(=O)CCCO
inactive: Malme-3M > 100 µM | TK-10 > 100 µM | UACC-62 > 100 µM | SF-539 > 100 µM | OVCAR-8 > 100 µM | HOP-92 > 100 µM | RPMI-8226 > 100 µM | SK-MEL-2 > 100 µM | HT-29 > 100 µM | CCRF-CEM > 100 µM | IGROV-1 > 100 µM | OVCAR-4 > 100 µM | SF-295 > 100 µM | CAKI-1 > 100 µM

CCN(CC)c1c(C(=O)/C=C/c2ccc(F)cc2)c(-c2ccccc2)nn(C)c1=O
inactive: Malme-3M 13.3 µM | HCC 2998 3.3 µM | TK-10 17.7 µM | UACC-62 10.3 µM | OVCAR-8 4.7 µM | HOP-92 3.85 µM | RPMI-8226 2.94 µM | SK-MEL-2 4.66 µM | HT-29 6.5 µM | CCRF-CEM 2.11 µM | IGROV-1 5.98 µM | OVCAR-4 4.24 µM | SF-295 12.2 µM | OVCAR-5 22.4 µM | CAKI-1 11.6 µM

Cn1c2c(c3ccccc31)CCN(CCN1CCN(c3cccc(Cl)c3)CC1)C2=O
inactive: TK-10 > 100 µM | UACC-62 72.9 µM | SF-539 > 100 µM | OVCAR-8 > 100 µM | HOP-92 19.9 µM | RPMI-8226 21.6 µM | HT-29 18.2 µM | CCRF-CEM > 100 µM | IGROV-1 > 100 µM

COC(OC)c1cccnc1C
inactive: Malme-3M > 100 µM | TK-10 > 100 µM | UACC-62 > 100 µM | SF-539 > 100 µM | OVCAR-8 > 100 µM | HOP-92 > 100 µM | SK-MEL-2 > 100 µM | HT-29 > 100 µM | CCRF-CEM > 100 µM | IGROV-1 > 100 µM | OVCAR-4 > 100 µM | SF-295 > 100 µM | OVCAR-5 > 100 µM | CAKI-1 > 100 µM

Cc1c(O)c(=O)ccn1C1OC(CO)C(O)C1O (stereo not given)
inactive: Malme-3M > 100 µM | TK-10 68.9 µM | UACC-62 96.2 µM | OVCAR-8 > 100 µM | HOP-92 > 100 µM | RPMI-8226 > 100 µM | SK-MEL-2 > 100 µM | HT-29 > 100 µM | CCRF-CEM 39.5 µM | OVCAR-4 > 100 µM | SF-295 > 100 µM | OVCAR-5 > 100 µM | CAKI-1 > 100 µM

C=Cc1ccc(C)[n+](C[Si](C)(C)O[Si](C)(C)C)c1
inactive: Malme-3M > 100 µM | HCC 2998 > 100 µM | UACC-62 > 100 µM | SF-539 > 100 µM | OVCAR-8 > 100 µM | RPMI-8226 > 100 µM | SK-MEL-2 > 100 µM | HT-29 > 100 µM | CCRF-CEM > 100 µM | IGROV-1 > 100 µM | OVCAR-4 42.3 µM | SF-295 > 100 µM | OVCAR-5 > 100 µM | CAKI-1 > 100 µM

C/C(CC(=O)Nc1cc(Cl)c(Cl)cc1Cl)=N\NS(=O)(=O)c1ccc(C)cc1
inactive: Malme-3M 31.2 µM | HCC 2998 35.3 µM | TK-10 48.5 µM | UACC-62 26.5 µM | SF-539 30.5 µM | OVCAR-8 39.3 µM | HOP-92 23.1 µM | RPMI-8226 27.4 µM | SK-MEL-2 28.9 µM | HT-29 51.3 µM | CCRF-CEM 27.5 µM | IGROV-1 37.4 µM | SF-295 37.1 µM | OVCAR-5 53.8 µM

Clc1ccc(Nc2nc3ccccc3nc2-c2cccs2)cc1Cl
inactive: Malme-3M > 100 µM | HCC 2998 32.1 µM | TK-10 42.1 µM | UACC-62 38.5 µM | SF-539 45.3 µM | OVCAR-8 19.7 µM | HOP-92 19.7 µM | RPMI-8226 45.2 µM | SK-MEL-2 > 100 µM | HT-29 25.3 µM | CCRF-CEM 27.2 µM | SF-295 40.4 µM | OVCAR-5 > 100 µM

CCN1C(C)=NC2C(=O)c3ccccc3C(=O)C21 (stereo not given)
inactive: Malme-3M 40 µM | HCC 2998 27.4 µM | TK-10 > 100 µM | UACC-62 43 µM | SF-539 40.3 µM | OVCAR-8 74.1 µM | RPMI-8226 55.7 µM | SK-MEL-2 > 100 µM | HT-29 28.8 µM | CCRF-CEM 47 µM | IGROV-1 38.1 µM | OVCAR-4 21 µM | SF-295 82.2 µM

CC1(c2ccccc2)CC(c2cccc([N+](=O)[O-])c2)=NO1 (stereo not given)
inactive: Malme-3M > 100 µM | HCC 2998 > 100 µM | TK-10 > 100 µM | SF-539 > 100 µM | OVCAR-8 > 100 µM | HOP-92 > 100 µM | RPMI-8226 51.3 µM | SK-MEL-2 > 100 µM | HT-29 73.1 µM | IGROV-1 > 100 µM | OVCAR-4 > 100 µM | SF-295 47.8 µM | OVCAR-5 > 100 µM

COc1ccc2ccnc(Cc3ccc(OCc4ccccc4)c(OC)c3)c2c1
inactive: Malme-3M 16.9 µM | HCC 2998 19.3 µM | TK-10 27.9 µM | SF-539 17.2 µM | OVCAR-8 19.1 µM | RPMI-8226 16.2 µM | SK-MEL-2 20.7 µM | HT-29 27.8 µM | CCRF-CEM 27.4 µM | OVCAR-4 14.2 µM | SF-295 26.4 µM | OVCAR-5 40.3 µM | CAKI-1 29.2 µM
